Data: patent US9682995B2, “Amino-substituted isothiazoles” (BAYER PHARMA AKTIENGESELLSCHAFT, priority 2013, dated 2017)

Key:
Assay in all cases: Kinase Profiling (KINOMEscan)
Type in all cases: binding
[1] = target: 456 kinases (of these 395 non-mutant kinases) (Homo sapiens, UniProt Q5S007); conditions: LRRK2; 10 μM
[2] = target: 456 kinases (of these 395 non-mutant kinases) (Homo sapiens, UniProt Q9UQB9); conditions: AURKC; 10 μM
[3] = target: 456 kinases (of these 395 non-mutant kinases) (Homo sapiens, UniProt P49761); conditions: CLK3; 10 μM
[4] = target: 456 kinases (of these 395 non-mutant kinases) (Homo sapiens, UniProt O15197); conditions: EPHB6; 10 μM
Sequence of 456 kinases (of these 395 non-mutant kinases) (Homo sapiens, UniProt O15197) (O15197 32-1021 limits assumed, change not shown): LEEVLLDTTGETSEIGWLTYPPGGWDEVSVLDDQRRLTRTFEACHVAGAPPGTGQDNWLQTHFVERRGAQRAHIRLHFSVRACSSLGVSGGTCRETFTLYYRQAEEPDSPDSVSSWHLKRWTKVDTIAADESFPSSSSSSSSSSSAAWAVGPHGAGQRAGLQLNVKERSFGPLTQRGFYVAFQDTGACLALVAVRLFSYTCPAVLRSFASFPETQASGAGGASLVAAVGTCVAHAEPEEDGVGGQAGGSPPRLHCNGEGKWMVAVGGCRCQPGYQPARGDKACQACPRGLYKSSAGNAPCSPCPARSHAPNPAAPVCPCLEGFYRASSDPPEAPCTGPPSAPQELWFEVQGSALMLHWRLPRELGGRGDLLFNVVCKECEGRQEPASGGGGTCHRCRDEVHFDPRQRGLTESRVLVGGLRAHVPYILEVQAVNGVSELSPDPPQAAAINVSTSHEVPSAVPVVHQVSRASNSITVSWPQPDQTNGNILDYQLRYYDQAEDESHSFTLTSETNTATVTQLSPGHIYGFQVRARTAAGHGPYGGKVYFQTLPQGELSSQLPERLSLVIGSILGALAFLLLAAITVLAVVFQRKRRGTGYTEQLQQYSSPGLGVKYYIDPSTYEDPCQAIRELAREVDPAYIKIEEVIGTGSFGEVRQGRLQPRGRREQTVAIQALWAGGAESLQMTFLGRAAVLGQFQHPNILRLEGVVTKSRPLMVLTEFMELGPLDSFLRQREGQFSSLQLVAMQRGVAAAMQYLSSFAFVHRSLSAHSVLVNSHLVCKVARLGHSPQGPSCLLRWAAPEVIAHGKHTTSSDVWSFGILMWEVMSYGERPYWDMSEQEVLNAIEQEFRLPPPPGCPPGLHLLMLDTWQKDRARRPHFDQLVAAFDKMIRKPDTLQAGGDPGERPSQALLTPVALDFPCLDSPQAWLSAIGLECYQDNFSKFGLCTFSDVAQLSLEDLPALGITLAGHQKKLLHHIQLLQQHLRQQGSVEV

[5] = target: 456 kinases (of these 395 non-mutant kinases) (Homo sapiens, UniProt Q00537); conditions: PCTK2; 10 μM
[6] = target: 456 kinases (of these 395 non-mutant kinases) (Homo sapiens, UniProt O15146); conditions: MUSK; 10 μM
[7] = target: 456 kinases (of these 395 non-mutant kinases) (Homo sapiens, UniProt P78356); conditions: PIP5K2B; 10 μM
Sequence of 456 kinases (of these 395 non-mutant kinases) (Homo sapiens, UniProt P78356) (P78356 2-416 limits assumed, change not shown): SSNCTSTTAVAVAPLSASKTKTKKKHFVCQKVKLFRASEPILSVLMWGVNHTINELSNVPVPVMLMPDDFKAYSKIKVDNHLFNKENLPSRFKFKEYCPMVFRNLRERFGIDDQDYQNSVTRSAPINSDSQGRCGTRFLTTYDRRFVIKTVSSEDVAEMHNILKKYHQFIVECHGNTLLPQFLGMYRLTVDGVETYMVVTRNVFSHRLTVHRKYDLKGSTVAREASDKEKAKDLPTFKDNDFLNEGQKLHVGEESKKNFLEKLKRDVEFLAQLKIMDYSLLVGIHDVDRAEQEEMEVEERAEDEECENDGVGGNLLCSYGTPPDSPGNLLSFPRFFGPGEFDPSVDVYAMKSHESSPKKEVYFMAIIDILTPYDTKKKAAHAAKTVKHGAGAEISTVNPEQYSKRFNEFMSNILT

[8] = target: 456 kinases (of these 395 non-mutant kinases) (Homo sapiens, UniProt Q13237); conditions: PRKG2; 10 μM
Sequence of 456 kinases (of these 395 non-mutant kinases) (Homo sapiens, UniProt Q13237) (Q13237 2-762 limits assumed, change not shown): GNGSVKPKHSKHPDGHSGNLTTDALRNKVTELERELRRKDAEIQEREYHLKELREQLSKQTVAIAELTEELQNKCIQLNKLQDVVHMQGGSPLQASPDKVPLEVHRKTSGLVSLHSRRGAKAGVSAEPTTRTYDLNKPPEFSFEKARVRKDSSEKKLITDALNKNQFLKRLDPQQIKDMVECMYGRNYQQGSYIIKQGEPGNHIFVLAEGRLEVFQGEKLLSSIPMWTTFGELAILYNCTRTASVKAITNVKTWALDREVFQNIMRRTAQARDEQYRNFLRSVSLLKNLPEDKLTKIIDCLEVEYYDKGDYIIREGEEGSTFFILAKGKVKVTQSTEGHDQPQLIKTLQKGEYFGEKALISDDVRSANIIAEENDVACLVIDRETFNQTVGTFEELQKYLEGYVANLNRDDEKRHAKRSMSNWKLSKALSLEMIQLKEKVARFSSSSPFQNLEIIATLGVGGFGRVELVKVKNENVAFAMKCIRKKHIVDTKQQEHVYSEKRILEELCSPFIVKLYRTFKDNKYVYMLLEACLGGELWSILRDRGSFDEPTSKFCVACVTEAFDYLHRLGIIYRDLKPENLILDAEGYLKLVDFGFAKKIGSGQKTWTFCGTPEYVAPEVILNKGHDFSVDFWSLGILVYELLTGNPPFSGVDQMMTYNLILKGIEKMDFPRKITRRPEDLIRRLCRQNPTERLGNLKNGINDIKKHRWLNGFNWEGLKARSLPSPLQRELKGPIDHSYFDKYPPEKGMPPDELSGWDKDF

[9] = target: 456 kinases (of these 395 non-mutant kinases) (Homo sapiens, UniProt Q16513); conditions: PKN2; 10 μM
[10] = target: 456 kinases (of these 395 non-mutant kinases) (Homo sapiens, UniProt Q6P3R8); conditions: NEK5; 10 μM
[11] = target: 456 kinases (of these 395 non-mutant kinases) (Homo sapiens, UniProt Q8TD19); conditions: NEK9; 10 μM
Sequence of 456 kinases (of these 395 non-mutant kinases) (Homo sapiens, UniProt Q8TD19) (Q8TD19 2-979 limits assumed, change not shown): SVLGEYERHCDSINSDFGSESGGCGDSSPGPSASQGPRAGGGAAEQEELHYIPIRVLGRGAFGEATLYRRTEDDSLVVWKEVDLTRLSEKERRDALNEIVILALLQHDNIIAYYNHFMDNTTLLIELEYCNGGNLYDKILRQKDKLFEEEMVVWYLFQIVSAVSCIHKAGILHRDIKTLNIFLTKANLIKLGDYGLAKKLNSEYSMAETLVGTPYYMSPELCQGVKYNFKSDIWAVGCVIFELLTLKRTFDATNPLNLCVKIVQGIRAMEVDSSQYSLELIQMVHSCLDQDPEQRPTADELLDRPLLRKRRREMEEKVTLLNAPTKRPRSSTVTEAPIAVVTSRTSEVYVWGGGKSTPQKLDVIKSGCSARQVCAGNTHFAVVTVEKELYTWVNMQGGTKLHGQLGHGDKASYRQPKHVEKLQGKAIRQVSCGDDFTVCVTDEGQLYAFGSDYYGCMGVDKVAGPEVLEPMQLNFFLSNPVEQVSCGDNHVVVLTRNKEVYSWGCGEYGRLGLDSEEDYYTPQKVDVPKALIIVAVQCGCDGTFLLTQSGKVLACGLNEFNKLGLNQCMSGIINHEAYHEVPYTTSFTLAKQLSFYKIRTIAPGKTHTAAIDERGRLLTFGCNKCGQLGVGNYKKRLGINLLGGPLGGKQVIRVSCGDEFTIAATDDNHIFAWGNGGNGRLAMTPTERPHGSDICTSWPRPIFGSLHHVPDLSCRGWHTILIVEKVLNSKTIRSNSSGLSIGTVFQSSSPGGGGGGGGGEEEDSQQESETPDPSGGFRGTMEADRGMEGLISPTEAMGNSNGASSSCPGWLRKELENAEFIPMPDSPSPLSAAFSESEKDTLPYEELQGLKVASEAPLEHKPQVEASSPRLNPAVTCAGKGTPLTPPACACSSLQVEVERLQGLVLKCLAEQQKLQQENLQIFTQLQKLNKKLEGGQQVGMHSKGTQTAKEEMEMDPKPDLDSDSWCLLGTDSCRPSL

[12] = target: 456 kinases (of these 395 non-mutant kinases) (Homo sapiens, UniProt Q8NG66); conditions: NEK11; 10 μM
[13] = target: 456 kinases (of these 395 non-mutant kinases) (Homo sapiens, UniProt P00519, F317I); conditions: 10 μM
[14] = target: 456 kinases (of these 395 non-mutant kinases) (Homo sapiens, UniProt Q9Y2H9); conditions: MAST1; 10 μM
[15] = target: 456 kinases (of these 395 non-mutant kinases) (Homo sapiens, UniProt Q08881); conditions: ITK; 10 μM
[16] = target: 456 kinases (of these 395 non-mutant kinases) (Homo sapiens, UniProt P50613); conditions: CDK7; 10 μM
Sequence of 456 kinases (of these 395 non-mutant kinases) (Homo sapiens, UniProt P50613) (P50613 2-346 limits assumed, change not shown): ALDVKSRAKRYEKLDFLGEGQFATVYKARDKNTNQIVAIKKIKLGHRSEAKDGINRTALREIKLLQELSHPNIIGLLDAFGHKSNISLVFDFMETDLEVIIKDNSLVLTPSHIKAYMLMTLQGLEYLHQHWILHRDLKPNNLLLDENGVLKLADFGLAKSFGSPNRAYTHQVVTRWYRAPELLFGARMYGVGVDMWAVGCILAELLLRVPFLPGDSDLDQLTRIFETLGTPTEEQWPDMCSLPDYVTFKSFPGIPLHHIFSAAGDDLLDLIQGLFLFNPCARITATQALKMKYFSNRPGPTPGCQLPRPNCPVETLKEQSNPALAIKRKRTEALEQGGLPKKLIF

[17] = target: 456 kinases (of these 395 non-mutant kinases) (Homo sapiens, UniProt P68400); conditions: CSNK2A1; 10 μM
[18] = target: 456 kinases (of these 395 non-mutant kinases) (Homo sapiens, UniProt Q96BR1); conditions: SGK3; 10 μM
[19] = target: 456 kinases (of these 395 non-mutant kinases) (Homo sapiens, UniProt Q00536); conditions: PCTK1; 10 μM
[20] = target: 456 kinases (of these 395 non-mutant kinases) (Homo sapiens, UniProt Q15139); conditions: PRKD1; 10 μM
[21] = target: 456 kinases (of these 395 non-mutant kinases) (Homo sapiens, UniProt P35916); conditions: FLT4; 10 μM
[22] = target: 456 kinases (of these 395 non-mutant kinases) (Homo sapiens, UniProt P53667); conditions: LIMK1; 10 μM
[23] = target: 456 kinases (of these 395 non-mutant kinases) (Homo sapiens, UniProt Q06187); conditions: BTK; 10 μM
[24] = target: 456 kinases (of these 395 non-mutant kinases) (Homo sapiens, UniProt P00533, G719C); conditions: EGFR(G719C); 10 μM
[25] = target: 456 kinases (of these 395 non-mutant kinases) (Homo sapiens, UniProt P11362); conditions: FGFR1; 10 μM
Sequence of 456 kinases (of these 395 non-mutant kinases) (Homo sapiens, UniProt P11362) (P11362 22-822 limits assumed, change not shown): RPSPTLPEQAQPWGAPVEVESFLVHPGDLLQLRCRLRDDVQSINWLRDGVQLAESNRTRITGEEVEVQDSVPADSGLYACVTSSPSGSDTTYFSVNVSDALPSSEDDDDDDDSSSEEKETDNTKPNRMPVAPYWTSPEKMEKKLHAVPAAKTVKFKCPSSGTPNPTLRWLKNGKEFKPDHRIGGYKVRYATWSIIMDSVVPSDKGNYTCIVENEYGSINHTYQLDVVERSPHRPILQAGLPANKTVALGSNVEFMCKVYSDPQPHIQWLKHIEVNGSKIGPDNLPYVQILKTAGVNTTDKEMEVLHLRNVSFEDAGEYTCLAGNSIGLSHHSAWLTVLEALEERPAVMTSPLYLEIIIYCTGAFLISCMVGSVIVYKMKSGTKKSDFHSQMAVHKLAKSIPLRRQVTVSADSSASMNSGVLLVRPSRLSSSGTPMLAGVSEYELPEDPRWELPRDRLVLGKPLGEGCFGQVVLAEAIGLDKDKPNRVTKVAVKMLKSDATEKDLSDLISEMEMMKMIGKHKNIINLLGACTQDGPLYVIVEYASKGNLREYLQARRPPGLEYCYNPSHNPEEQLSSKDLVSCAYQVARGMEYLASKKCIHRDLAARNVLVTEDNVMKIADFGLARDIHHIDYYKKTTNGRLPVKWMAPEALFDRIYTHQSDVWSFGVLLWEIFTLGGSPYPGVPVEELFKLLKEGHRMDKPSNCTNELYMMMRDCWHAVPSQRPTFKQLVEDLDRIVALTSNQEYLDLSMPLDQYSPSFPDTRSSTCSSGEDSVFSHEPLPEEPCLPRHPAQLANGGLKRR

[26] = target: 456 kinases (of these 395 non-mutant kinases) (Homo sapiens, UniProt Q15831); conditions: LKB1; 10 μM
[27] = target: 456 kinases (of these 395 non-mutant kinases) (Homo sapiens, UniProt O14733); conditions: MKK7; 10 μM
Sequence of 456 kinases (of these 395 non-mutant kinases) (Homo sapiens, UniProt O14733) (O14733 2-419 limits assumed, change not shown): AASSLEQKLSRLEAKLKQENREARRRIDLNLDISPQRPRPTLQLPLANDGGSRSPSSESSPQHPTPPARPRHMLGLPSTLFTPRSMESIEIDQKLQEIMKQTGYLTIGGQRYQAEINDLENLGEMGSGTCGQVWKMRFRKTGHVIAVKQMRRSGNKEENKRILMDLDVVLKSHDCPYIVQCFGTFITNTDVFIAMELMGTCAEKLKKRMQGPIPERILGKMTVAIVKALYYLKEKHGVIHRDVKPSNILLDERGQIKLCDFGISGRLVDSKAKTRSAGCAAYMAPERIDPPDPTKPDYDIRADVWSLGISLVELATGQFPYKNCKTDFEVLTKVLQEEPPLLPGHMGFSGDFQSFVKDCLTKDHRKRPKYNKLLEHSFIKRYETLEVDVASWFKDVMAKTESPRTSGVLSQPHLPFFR

[28] = target: 456 kinases (of these 395 non-mutant kinases) (Homo sapiens, UniProt P49841); conditions: GSK3B; 10 μM
[29] = target: 456 kinases (of these 395 non-mutant kinases) (Homo sapiens, UniProt Q8IU85); conditions: CAMK1D; 10 μM
[30] = target: 456 kinases (of these 395 non-mutant kinases) (Homo sapiens, UniProt P06213); conditions: INSR; 10 μM
[31] = target: 456 kinases (of these 395 non-mutant kinases) (Homo sapiens, UniProt P00519, T315I); conditions: 10 μM
[32] = target: 456 kinases (of these 395 non-mutant kinases) (Homo sapiens, UniProt Q15569); conditions: TESK1; 10 μM

CCc1ccccc1NC(=O)c1c(C)nsc1Nc1cnc2cc(F)ccc2n1 [Example 20, N-(2-Ethylphenyl)-5-[(6-fluoroquinoxalin-2-yl)amino]-3-methyl-1,2-thiazole-4-carboxamide]
% Ctrl @ 10 μM [1]: 95 % Ctrl
% Ctrl @ 10 μM [2]: 73 % Ctrl
% Ctrl @ 10 μM [3]: 74 % Ctrl
% Ctrl @ 10 μM [4]: 92 % Ctrl
% Ctrl @ 10 μM [5]: 100 % Ctrl
% Ctrl @ 10 μM [6]: 91 % Ctrl
% Ctrl @ 10 μM [7]: 86 % Ctrl
% Ctrl @ 10 μM [8]: 100 % Ctrl
% Ctrl @ 10 μM [9]: 100 % Ctrl
% Ctrl @ 10 μM [10]: 100 % Ctrl
% Ctrl @ 10 μM [11]: 78 % Ctrl
% Ctrl @ 10 μM [12]: 92 % Ctrl
% Ctrl @ 10 μM ([13]; ABL1(F317I)-nonphosphorylated): 100 % Ctrl
% Ctrl @ 10 μM ([13]; ABL1(F317I)-phosphorylated): 86 % Ctrl
% Ctrl @ 10 μM [14]: 67 % Ctrl
% Ctrl @ 10 μM [15]: 100 % Ctrl
% Ctrl @ 10 μM [16]: 92 % Ctrl
% Ctrl @ 10 μM [17]: 85 % Ctrl
% Ctrl @ 10 μM [18]: 100 % Ctrl
% Ctrl @ 10 μM [19]: 100 % Ctrl
% Ctrl @ 10 μM [20]: 88 % Ctrl
% Ctrl @ 10 μM [21]: 87 % Ctrl
% Ctrl @ 10 μM [22]: 90 % Ctrl
% Ctrl @ 10 μM [23]: 98 % Ctrl
% Ctrl @ 10 μM [24]: 95 % Ctrl
% Ctrl @ 10 μM [25]: 94 % Ctrl
% Ctrl @ 10 μM [26]: 100 % Ctrl
% Ctrl @ 10 μM [27]: 100 % Ctrl
% Ctrl @ 10 μM [28]: 100 % Ctrl
% Ctrl @ 10 μM [29]: 87 % Ctrl
% Ctrl @ 10 μM [30]: 98 % Ctrl
% Ctrl @ 10 μM ([31]; ABL1(T315I)-nonphosphorylated): 100 % Ctrl
% Ctrl @ 10 μM ([31]; ABL1(T315I)-phosphorylated): 87 % Ctrl
% Ctrl @ 10 μM [32]: 78 % Ctrl
